Test results: patent EP4703354A1, “COMPOUND AS CCR6 ANTAGONIST, AND PHARMACEUTICAL COMPOSITION AND USE THEREOF” (Wuhan Createrna Science and Technology Co.,Ltd., priority 2023, dated 2024)

Assay: in vivo pharmacokinetic study in SD rats
Conditions: male, rat, plasma; for bioavailability: 1 mg/kg PO vs 1 mg/kg IV, read-out: Oral bioavailability F (%); for AUC(0-t) / Cmax / half-life: 1 mg/kg
In short: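 Male SD rats (180-200 g), 3 per route: single fasted oral gavage in 1% Tween 80 or tail-vein IV bolus in 50% PEG400. Orbital blood into EDTA-K2 sampled to 8 h; plasma analysed and PK parameters derived by non-compartmental analysis.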

Row | Compound | bioavailability | AUC(0-t) (IV) | Cmax (IV) | half-life (IV) | AUC(0-t) (PO) | Cmax (PO) | half-life (PO)
1 | CN(C)C(=O)c1nccc(Nc2c(N[C@@H](C#CC3CCC3)[C@]3(C)CC(F)(F)CO3)c(=O)c2=O)c1O (single isomer, unassigned) [110A] | 68.6% | 580 ng·h/mL | 1860 ng/mL | 19.2 min | 397 ng·h/mL | 311 ng/mL | 55.8 min
2 | Cc1cc(F)cnc1[C@H](Nc1c(Nc2ccnc(C(=O)N(C)C)c2O)c(=O)c1=O)[C@]1(C)CC(F)(F)CO1 [093A, 4-((2-(((S)-((S)-4,4-difluoro-2-methyltetrahydrofuran-2-yl)(5-fluoro-3-methylpyridin-2-yl)methyl)amino)-3,4-dioxocyclobut-1-en-1-yl)amino)-3-hydroxy-N,N-dimethylpicolinamide] | 23.7% | 1240 ng·h/mL | 4840 ng/mL | 14.4 min | 295 ng·h/mL | 271 ng/mL | 66 min
3 | CN(C)C(=O)c1nccc(Nc2c(N[C@@H](c3nc(Cl)ccc3F)[C@@]3(C)CC(F)(F)CO3)c(=O)c2=O)c1O [068B, 4-((2-(((S)-(6-chloro-3-fluoropyridin-2-yl)((R)-4,4-difluoro-2-methyltetrahydrofuran-2-yl)methyl)amino)-3,4-dioxocyclobut-1-en-1-yl)amino)-3-hydroxy-N,N-dimethylpicolinamide] | 23.4% | 1270 ng·h/mL | 3630 ng/mL | 15 min | 298 ng·h/mL | 291 ng/mL | 91.8 min
